# In PubChem BioAssay (NCI):
#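 48-hour exposure; five concentrations; linearly interpolated endpoints. TGI denotes the concentration required for complete inhibition of growth.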
# System: OVCAR-8 ovarian
# Assay: NCI anticancer screen, dose series, 48 h
row,SMILES,TGI
1,C=c1c(OC)c(OC)c(O)c2c1=c1cc([N+](=O)[O-])cc(OC)c1=N2,> 100 µM

# System: HCT-116 colon
# Assay: NCI anticancer screen, dose series, 48 h
row,SMILES,TGI
1,C=C1C(=O)O[C@@]23C1CC[C@@H](C)C2CC[C@@]1(C)OC31 (some centres not stated),21.3 µM
2,O=c1[nH]nc(-c2ccccc2)c2[nH]c(-c3ccccc3)cc12,> 100 µM
3,CC1S/C(=N/c2nnc(-c3ccccc3)o2)NC1=O (configuration not stated),37.4 µM
4,CC1(C)CNC(=O)C2(C=NC(C)(C)CNC(=O)C3(C=N1)CCCO3)CCCO2 (configuration not stated),> 10 µM
5,CC(=S)N=Cc1c(O)cc(C)oc1=O,> 100 µM
6,CC1(C(=O)O)CCCC1C(=O)O (configuration not stated),> 100 µM
7,C=c1c(OC)c(OC)c(O)c2c1=c1cc([N+](=O)[O-])cc(OC)c1=N2,> 100 µM

# System: SF-539 CNS
# Assay: NCI anticancer screen, dose series, 48 h
row,SMILES,TGI
1,C=C1C(=O)O[C@@]23C1CC[C@@H](C)C2CC[C@@]1(C)OC31 (some centres not stated),12.2 µM
2,CC1S/C(=N/c2nnc(-c3ccccc3)o2)NC1=O (configuration not stated),> 100 µM
3,CC1(C)CNC(=O)C2(C=NC(C)(C)CNC(=O)C3(C=N1)CCCO3)CCCO2 (configuration not stated),> 10 µM
4,CC(=S)N=Cc1c(O)cc(C)oc1=O,> 100 µM
5,COc1ccc(NC2=CC(=O)C(=O)c3ccccc32)nn1,2.2 µM
6,C=c1c(OC)c(OC)c(O)c2c1=c1cc([N+](=O)[O-])cc(OC)c1=N2,> 100 µM

# System: 786-0 renal
# Assay: NCI anticancer screen, dose series, 48 h
row,SMILES,TGI
1,C=C1C(=O)O[C@@]23C1CC[C@@H](C)C2CC[C@@]1(C)OC31 (some centres not stated),26.6 µM
2,O=c1[nH]nc(-c2ccccc2)c2[nH]c(-c3ccccc3)cc12,> 100 µM
3,CC1S/C(=N/c2nnc(-c3ccccc3)o2)NC1=O (configuration not stated),85.4 µM
4,CC1(C)CNC(=O)C2(C=NC(C)(C)CNC(=O)C3(C=N1)CCCO3)CCCO2 (configuration not stated),> 10 µM
5,CC(=S)N=Cc1c(O)cc(C)oc1=O,> 100 µM
6,COc1ccc(NC2=CC(=O)C(=O)c3ccccc32)nn1,3.76 µM
7,CC1(C(=O)O)CCCC1C(=O)O (configuration not stated),> 100 µM
8,C=c1c(OC)c(OC)c(O)c2c1=c1cc([N+](=O)[O-])cc(OC)c1=N2,> 100 µM

# System: SK-MEL-2 melanoma
# Assay: NCI anticancer screen, dose series, 48 h
row,SMILES,TGI
1,C=C1C(=O)O[C@@]23C1CC[C@@H](C)C2CC[C@@]1(C)OC31 (some centres not stated),23.9 µM
2,CC1S/C(=N/c2nnc(-c3ccccc3)o2)NC1=O (configuration not stated),> 100 µM
3,CC(=S)N=Cc1c(O)cc(C)oc1=O,> 100 µM
4,COc1ccc(NC2=CC(=O)C(=O)c3ccccc32)nn1,4.32 µM
5,CC1(C(=O)O)CCCC1C(=O)O (configuration not stated),> 100 µM
6,C=c1c(OC)c(OC)c(O)c2c1=c1cc([N+](=O)[O-])cc(OC)c1=N2,> 100 µM

# System: A498 renal
# Assay: NCI anticancer screen, dose series, 48 h
row,SMILES,TGI
1,C=C1C(=O)O[C@@]23C1CC[C@@H](C)C2CC[C@@]1(C)OC31 (some centres not stated),59.1 µM
2,CC1S/C(=N/c2nnc(-c3ccccc3)o2)NC1=O (configuration not stated),> 100 µM
3,CC1(C)CNC(=O)C2(C=NC(C)(C)CNC(=O)C3(C=N1)CCCO3)CCCO2 (configuration not stated),> 10 µM
4,CC(=S)N=Cc1c(O)cc(C)oc1=O,> 100 µM
5,COc1ccc(NC2=CC(=O)C(=O)c3ccccc32)nn1,3.29 µM
6,CC1(C(=O)O)CCCC1C(=O)O (configuration not stated),> 100 µM
7,C=c1c(OC)c(OC)c(O)c2c1=c1cc([N+](=O)[O-])cc(OC)c1=N2,> 100 µM

# System: MDA-N
# Assay: NCI anticancer screen, dose series, 48 h
row,SMILES,TGI
1,C=C1C(=O)O[C@@]23C1CC[C@@H](C)C2CC[C@@]1(C)OC31 (some centres not stated),23.1 µM
2,O=c1[nH]nc(-c2ccccc2)c2[nH]c(-c3ccccc3)cc12,> 100 µM
3,CC1S/C(=N/c2nnc(-c3ccccc3)o2)NC1=O (configuration not stated),> 100 µM
4,CC1(C)CNC(=O)C2(C=NC(C)(C)CNC(=O)C3(C=N1)CCCO3)CCCO2 (configuration not stated),> 10 µM
5,CC(=S)N=Cc1c(O)cc(C)oc1=O,> 100 µM
6,COc1ccc(NC2=CC(=O)C(=O)c3ccccc32)nn1,1.16 µM
7,CC1(C(=O)O)CCCC1C(=O)O (configuration not stated),> 100 µM
8,C=c1c(OC)c(OC)c(O)c2c1=c1cc([N+](=O)[O-])cc(OC)c1=N2,> 100 µM

# System: UACC-257 melanoma
# Assay: NCI anticancer screen, dose series, 48 h
row,SMILES,TGI
1,C=C1C(=O)O[C@@]23C1CC[C@@H](C)C2CC[C@@]1(C)OC31 (some centres not stated),24.4 µM
2,CC1S/C(=N/c2nnc(-c3ccccc3)o2)NC1=O (configuration not stated),> 100 µM
3,CC1(C)CNC(=O)C2(C=NC(C)(C)CNC(=O)C3(C=N1)CCCO3)CCCO2 (configuration not stated),> 10 µM
4,CC(=S)N=Cc1c(O)cc(C)oc1=O,> 100 µM
5,COc1ccc(NC2=CC(=O)C(=O)c3ccccc32)nn1,3.24 µM
6,CC1(C(=O)O)CCCC1C(=O)O (configuration not stated),> 100 µM
7,C=c1c(OC)c(OC)c(O)c2c1=c1cc([N+](=O)[O-])cc(OC)c1=N2,> 100 µM

# System: MALME-3M melanoma
# Assay: NCI anticancer screen, dose series, 48 h
row,SMILES,TGI
1,C=C1C(=O)O[C@@]23C1CC[C@@H](C)C2CC[C@@]1(C)OC31 (some centres not stated),7.59 µM
2,O=c1[nH]nc(-c2ccccc2)c2[nH]c(-c3ccccc3)cc12,> 100 µM
3,CC1S/C(=N/c2nnc(-c3ccccc3)o2)NC1=O (configuration not stated),> 100 µM
4,CC1(C)CNC(=O)C2(C=NC(C)(C)CNC(=O)C3(C=N1)CCCO3)CCCO2 (configuration not stated),> 10 µM
5,COc1ccc(NC2=CC(=O)C(=O)c3ccccc32)nn1,1.96 µM
6,CC1(C(=O)O)CCCC1C(=O)O (configuration not stated),> 100 µM
7,C=c1c(OC)c(OC)c(O)c2c1=c1cc([N+](=O)[O-])cc(OC)c1=N2,> 100 µM

# System: HCT-15 colon
# Assay: NCI anticancer screen, dose series, 48 h
row,SMILES,TGI
1,C=C1C(=O)O[C@@]23C1CC[C@@H](C)C2CC[C@@]1(C)OC31 (some centres not stated),30.3 µM
2,O=c1[nH]nc(-c2ccccc2)c2[nH]c(-c3ccccc3)cc12,> 100 µM
3,CC1S/C(=N/c2nnc(-c3ccccc3)o2)NC1=O (configuration not stated),> 100 µM
4,CC1(C)CNC(=O)C2(C=NC(C)(C)CNC(=O)C3(C=N1)CCCO3)CCCO2 (configuration not stated),> 10 µM
5,CC(=S)N=Cc1c(O)cc(C)oc1=O,> 100 µM
6,COc1ccc(NC2=CC(=O)C(=O)c3ccccc32)nn1,2.51 µM
7,CC1(C(=O)O)CCCC1C(=O)O (configuration not stated),> 100 µM
8,C=c1c(OC)c(OC)c(O)c2c1=c1cc([N+](=O)[O-])cc(OC)c1=N2,> 100 µM

# System: SW-620 colon
# Assay: NCI anticancer screen, dose series, 48 h
row,SMILES,TGI
1,C=C1C(=O)O[C@@]23C1CC[C@@H](C)C2CC[C@@]1(C)OC31 (some centres not stated),37.5 µM
2,O=c1[nH]nc(-c2ccccc2)c2[nH]c(-c3ccccc3)cc12,> 100 µM
3,CC1S/C(=N/c2nnc(-c3ccccc3)o2)NC1=O (configuration not stated),> 100 µM
4,CC1(C)CNC(=O)C2(C=NC(C)(C)CNC(=O)C3(C=N1)CCCO3)CCCO2 (configuration not stated),> 10 µM
5,CC(=S)N=Cc1c(O)cc(C)oc1=O,> 100 µM
6,COc1ccc(NC2=CC(=O)C(=O)c3ccccc32)nn1,3.4 µM
7,CC1(C(=O)O)CCCC1C(=O)O (configuration not stated),> 100 µM
8,C=c1c(OC)c(OC)c(O)c2c1=c1cc([N+](=O)[O-])cc(OC)c1=N2,> 100 µM

# System: HOP-92 NSCLC
# Assay: NCI anticancer screen, dose series, 48 h
row,SMILES,TGI
1,C=C1C(=O)O[C@@]23C1CC[C@@H](C)C2CC[C@@]1(C)OC31 (some centres not stated),24.2 µM
2,O=c1[nH]nc(-c2ccccc2)c2[nH]c(-c3ccccc3)cc12,> 100 µM
3,CC1S/C(=N/c2nnc(-c3ccccc3)o2)NC1=O (configuration not stated),> 100 µM
4,CC1(C)CNC(=O)C2(C=NC(C)(C)CNC(=O)C3(C=N1)CCCO3)CCCO2 (configuration not stated),> 10 µM
5,CC(=S)N=Cc1c(O)cc(C)oc1=O,> 100 µM
6,CC1(C(=O)O)CCCC1C(=O)O (configuration not stated),> 100 µM
7,C=c1c(OC)c(OC)c(O)c2c1=c1cc([N+](=O)[O-])cc(OC)c1=N2,> 100 µM

# System: OVCAR-4 ovarian
# Assay: NCI anticancer screen, dose series, 48 h
row,SMILES,TGI
1,C=C1C(=O)O[C@@]23C1CC[C@@H](C)C2CC[C@@]1(C)OC31 (some centres not stated),25.3 µM
2,O=c1[nH]nc(-c2ccccc2)c2[nH]c(-c3ccccc3)cc12,> 100 µM
3,CC1S/C(=N/c2nnc(-c3ccccc3)o2)NC1=O (configuration not stated),> 100 µM
4,CC1(C)CNC(=O)C2(C=NC(C)(C)CNC(=O)C3(C=N1)CCCO3)CCCO2 (configuration not stated),> 10 µM
5,CC(=S)N=Cc1c(O)cc(C)oc1=O,> 100 µM
6,COc1ccc(NC2=CC(=O)C(=O)c3ccccc32)nn1,2.79 µM
7,CC1(C(=O)O)CCCC1C(=O)O (configuration not stated),> 100 µM
8,C=c1c(OC)c(OC)c(O)c2c1=c1cc([N+](=O)[O-])cc(OC)c1=N2,> 100 µM

# System: COLO 205 colon
# Assay: NCI anticancer screen, dose series, 48 h
row,SMILES,TGI
1,C=C1C(=O)O[C@@]23C1CC[C@@H](C)C2CC[C@@]1(C)OC31 (some centres not stated),3.68 µM
2,O=c1[nH]nc(-c2ccccc2)c2[nH]c(-c3ccccc3)cc12,> 100 µM
3,CC1S/C(=N/c2nnc(-c3ccccc3)o2)NC1=O (configuration not stated),> 100 µM
4,CC1(C)CNC(=O)C2(C=NC(C)(C)CNC(=O)C3(C=N1)CCCO3)CCCO2 (configuration not stated),> 10 µM
5,CC(=S)N=Cc1c(O)cc(C)oc1=O,> 100 µM
6,COc1ccc(NC2=CC(=O)C(=O)c3ccccc32)nn1,3.21 µM
7,C=c1c(OC)c(OC)c(O)c2c1=c1cc([N+](=O)[O-])cc(OC)c1=N2,> 100 µM

# System: ACHN renal
# Assay: NCI anticancer screen, dose series, 48 h
row,SMILES,TGI
1,C=C1C(=O)O[C@@]23C1CC[C@@H](C)C2CC[C@@]1(C)OC31 (some centres not stated),27.1 µM
2,CC1S/C(=N/c2nnc(-c3ccccc3)o2)NC1=O (configuration not stated),> 100 µM
3,CC1(C)CNC(=O)C2(C=NC(C)(C)CNC(=O)C3(C=N1)CCCO3)CCCO2 (configuration not stated),> 10 µM
4,CC(=S)N=Cc1c(O)cc(C)oc1=O,> 100 µM
5,COc1ccc(NC2=CC(=O)C(=O)c3ccccc32)nn1,5.1 µM
6,CC1(C(=O)O)CCCC1C(=O)O (configuration not stated),> 100 µM
7,C=c1c(OC)c(OC)c(O)c2c1=c1cc([N+](=O)[O-])cc(OC)c1=N2,> 100 µM

# System: HT29 colon
# Assay: NCI anticancer screen, dose series, 48 h
row,SMILES,TGI
1,C=C1C(=O)O[C@@]23C1CC[C@@H](C)C2CC[C@@]1(C)OC31 (some centres not stated),25.6 µM
2,O=c1[nH]nc(-c2ccccc2)c2[nH]c(-c3ccccc3)cc12,> 100 µM
3,CC1S/C(=N/c2nnc(-c3ccccc3)o2)NC1=O (configuration not stated),69.8 µM
4,CC1(C)CNC(=O)C2(C=NC(C)(C)CNC(=O)C3(C=N1)CCCO3)CCCO2 (configuration not stated),> 10 µM
5,CC(=S)N=Cc1c(O)cc(C)oc1=O,> 100 µM
